As usually defined, the IC50 is the concentration needed to halve the response being measured. In general, MIC refers to the lowest concentration that inhibits growth of the organism.

The record followed here is US10800791B2, “Triazole ACC inhibitors and uses thereof” (Gilead Apollo, LLC, priority 2015, dated 2020).

SMILES strings stand for the structures. Converted amounts (≈) assume the structure as drawn. Where two headings read alike, the source gives them in different places. Where only a bound is given, the exact number is not on record here.

The subject of one assay is Botrtyis cinerea (Bc). Kind of assay: Growth inhibition assay of fungal pathogens, Bc. Format: cell-based. Conditions: 48 h, growth inhibition at 48 hours vs 2% DMSO control. A digest of the protocol: (§1)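 Percent inhibition derived at 48 hours from OD600 and visual scores versus 2% DMSO control, with media+DMSO blank as background. Spore inocula in 17% V8 medium were sized from 48 h growth curves; compounds tested at final 50/10/2 or 2/0.4/0.08 ppm.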

In another assay the target is fungal (fACC2) (UniProt Q00955). The note with it: read-out: fACC2 (in vitro ACC2 Inhibition Assay, IC50); Table 2b, additional results; ADP-Glo, 5 nM ACC2, 20 μM ATP, 20 μM acetyl-CoA. (In general: In ADP-Glo the light output rises with the ADP produced.)
fungal (fACC2), sequence (Q00955 whole entry): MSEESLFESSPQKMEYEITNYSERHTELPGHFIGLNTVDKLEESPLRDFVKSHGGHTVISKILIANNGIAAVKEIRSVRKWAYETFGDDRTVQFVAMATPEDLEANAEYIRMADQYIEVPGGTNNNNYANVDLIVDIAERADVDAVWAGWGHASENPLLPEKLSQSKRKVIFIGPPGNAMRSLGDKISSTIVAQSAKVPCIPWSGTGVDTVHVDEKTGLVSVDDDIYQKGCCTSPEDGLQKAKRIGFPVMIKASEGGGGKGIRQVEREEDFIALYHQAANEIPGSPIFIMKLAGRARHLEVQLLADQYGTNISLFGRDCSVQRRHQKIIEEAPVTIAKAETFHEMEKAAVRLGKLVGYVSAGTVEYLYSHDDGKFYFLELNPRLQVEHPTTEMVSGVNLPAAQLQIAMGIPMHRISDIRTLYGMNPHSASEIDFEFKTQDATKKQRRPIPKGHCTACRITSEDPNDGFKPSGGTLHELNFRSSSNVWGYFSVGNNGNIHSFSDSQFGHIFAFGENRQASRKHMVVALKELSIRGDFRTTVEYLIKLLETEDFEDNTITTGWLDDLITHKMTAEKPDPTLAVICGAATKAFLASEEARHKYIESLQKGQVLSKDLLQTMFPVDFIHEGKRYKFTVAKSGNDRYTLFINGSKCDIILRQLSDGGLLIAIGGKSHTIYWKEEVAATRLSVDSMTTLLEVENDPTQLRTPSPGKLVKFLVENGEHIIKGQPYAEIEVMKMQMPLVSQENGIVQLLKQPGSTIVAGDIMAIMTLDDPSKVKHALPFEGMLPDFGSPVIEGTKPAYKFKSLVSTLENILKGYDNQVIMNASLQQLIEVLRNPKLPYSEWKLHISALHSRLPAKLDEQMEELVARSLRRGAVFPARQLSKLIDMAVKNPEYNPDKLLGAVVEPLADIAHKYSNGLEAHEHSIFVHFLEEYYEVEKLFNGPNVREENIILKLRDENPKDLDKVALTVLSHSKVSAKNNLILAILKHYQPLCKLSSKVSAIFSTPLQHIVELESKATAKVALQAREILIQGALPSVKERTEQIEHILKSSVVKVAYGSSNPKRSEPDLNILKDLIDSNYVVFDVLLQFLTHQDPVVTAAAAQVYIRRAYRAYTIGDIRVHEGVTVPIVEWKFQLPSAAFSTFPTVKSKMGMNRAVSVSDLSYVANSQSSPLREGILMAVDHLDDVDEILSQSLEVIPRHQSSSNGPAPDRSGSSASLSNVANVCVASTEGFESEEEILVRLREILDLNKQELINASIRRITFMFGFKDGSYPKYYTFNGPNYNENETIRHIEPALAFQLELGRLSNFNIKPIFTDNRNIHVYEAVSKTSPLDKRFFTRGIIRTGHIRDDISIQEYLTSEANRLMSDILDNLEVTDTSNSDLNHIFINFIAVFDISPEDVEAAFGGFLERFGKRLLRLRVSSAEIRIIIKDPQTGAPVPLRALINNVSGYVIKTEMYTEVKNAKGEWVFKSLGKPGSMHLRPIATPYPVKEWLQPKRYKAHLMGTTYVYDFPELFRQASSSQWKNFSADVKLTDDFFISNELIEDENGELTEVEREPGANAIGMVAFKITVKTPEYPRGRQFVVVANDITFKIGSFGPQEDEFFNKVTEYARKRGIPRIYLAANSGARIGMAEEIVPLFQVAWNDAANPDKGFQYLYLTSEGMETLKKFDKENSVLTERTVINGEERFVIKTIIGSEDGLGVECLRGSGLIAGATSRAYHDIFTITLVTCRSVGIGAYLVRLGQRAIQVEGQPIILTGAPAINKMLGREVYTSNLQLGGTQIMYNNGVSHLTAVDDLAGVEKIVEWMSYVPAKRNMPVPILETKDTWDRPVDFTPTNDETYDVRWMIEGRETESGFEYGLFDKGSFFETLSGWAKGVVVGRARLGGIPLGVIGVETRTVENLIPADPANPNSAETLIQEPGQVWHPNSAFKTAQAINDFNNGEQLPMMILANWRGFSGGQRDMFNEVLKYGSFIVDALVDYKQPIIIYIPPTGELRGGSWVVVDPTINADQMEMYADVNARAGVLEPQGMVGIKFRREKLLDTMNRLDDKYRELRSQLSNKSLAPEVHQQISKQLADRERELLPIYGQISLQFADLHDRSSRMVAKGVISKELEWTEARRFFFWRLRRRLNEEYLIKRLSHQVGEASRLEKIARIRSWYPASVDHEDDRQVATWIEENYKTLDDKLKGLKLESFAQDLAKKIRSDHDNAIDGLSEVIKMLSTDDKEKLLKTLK
The next assay concerns Rhizoctonia solani (Rs). Kind of assay: Growth inhibition assay of fungal pathogens, Rs. Format: cell-based. The note with it: 48 h.
Assay [1] concerns Phytophthora capsici (Pc). Kind of assay: Growth inhibition assay of fungal pathogens, Pc. It is filed as cell-based. Conditions: 48 h. The essentials:
as §1

The next assay has as its target human (hACC2) (Homo sapiens, UniProt O00763). Kind of assay: In vitro ACC inhibition assay (ADP-Glo), hACC2. Format: biochemical. Conditions: Table 2b, additional results, 5 nM ACC2, 20 μM ATP, 20 μM acetyl-CoA. Here is the method:
The detailed procedure is as follows. […] 10 μL ADP glo reagent was added. […] 20 μL kinase detection reagent was added.

The subject of a further assay is C. parapsilosis. Kind of assay: Antifungal Activity Assay (broth microtiter MIC), C. parapsilosis. Format: cell-based, Candida parapsilosis. The note with it: Lodderomyces parapsilosis, ATCC22019, 48 h. A digest of the protocol: (§2)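 MIC read by eye at 48 h, comparing challenged wells with the growth control. Yeasts grown overnight on Sabouraud dextrose agar at 35° C, suspended in RPMI 1640+MOPS and added at 2.5×10^3 CFU/mL final, following CLSI M27-A3.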

The test system of a further assay is Diplodia maydis (Dm). Kind of assay: Growth inhibition assay of fungal pathogens, Dm. It is filed as cell-based. Conditions: Stenocarpella maydis, 48 h, growth inhibition at 48 hours vs 2% DMSO control. A digest of the protocol:
as §1

A further assay concerns C. krusei. Kind of assay: Antifungal Activity Assay (broth microtiter MIC), C. krusei. Format: cell-based, Candida krusei. The note with it: Pichia kudriavzevii, ATCC6258, 48 h. The essentials: as §2
Assay [2] concerns Fusarium virguliforme (Fv). Nature of the assay: Growth inhibition assay of fungal pathogens, Fv. It is filed as cell-based. Conditions: 48 h. A digest of the protocol: as §1
For another assay, the system named is C. albicans. Kind of assay: Antifungal Activity Assay (broth microtiter MIC), C. albicans. The note with it: Candida albicans, ATCC90028, 48 h. Format: cell-based, Candida albicans. A digest of the protocol: as §2
The next assay deals with Septoria tritici (St). Kind of assay: Growth inhibition assay of fungal pathogens, St. It is filed as cell-based. Conditions: Zymoseptoria tritici, 48 h, growth inhibition at 48 hours vs 2% DMSO control. The essentials:
as §1

Assay [3] concerns Collectotrichum graminicola (Cg). Nature of the assay: Growth inhibition assay of fungal pathogens, Cg. Conditions: 48 h, growth inhibition at 48 hours vs 2% DMSO control. It is filed as cell-based. The essentials: as §1
Assay [4] has as its system Fusarium moniliforme (Fm). Kind of assay: Growth inhibition assay of fungal pathogens, Fm. It is filed as cell-based. Conditions: Fusarium verticillioides, 48 h, read-out: Concentration at 90% Inhibition Fm. A digest of the protocol:
as §1

[5] abbreviates: Botrtyis cinerea, read-out: Concentration at 90% Inhibition Bc.
[6] abbreviates: mycelial plugs, growth inhibition at 48 hours vs 2% DMSO control, read-out: Concentration at 90% Inhibition Rs.
Setting [7] is: growth inhibition at 48 hours vs 2% DMSO control, read-out: Concentration at 90% Inhibition Pc.
The mark [8] stands for this setting: Table 3b (additional results), ATCC 22019, 3 replicates, MIC recorded at 48 h, read-out: MIC, C. parapsilosis ATCC 22019.
Setting [9] is: Diplodia maydis, read-out: Concentration at 90% Inhibition Dm.
Where [10] appears, read: Table 3b (additional results), ATCC 6258, 3 replicates, MIC recorded at 48 h, read-out: MIC, C. krusei ATCC 6258.
Where [11] appears, read: growth inhibition at 48 hours vs 2% DMSO control, read-out: Concentration at 90% Inhibition Fv.
[12] abbreviates: Table 3b (additional results), ATCC 90028, 3 replicates, MIC recorded at 48 h, read-out: MIC, C. albicans ATCC 90028.
[13] abbreviates: Septoria tritici, read-out: Concentration at 90% Inhibition St.
Setting [14] is: Collectotrichum graminicola, read-out: Concentration at 90% Inhibition Cg.
Where [15] appears, read: Fusarium moniliforme, growth inhibition at 48 hours vs 2% DMSO control.

human (hACC2), sequence (O00763 whole entry): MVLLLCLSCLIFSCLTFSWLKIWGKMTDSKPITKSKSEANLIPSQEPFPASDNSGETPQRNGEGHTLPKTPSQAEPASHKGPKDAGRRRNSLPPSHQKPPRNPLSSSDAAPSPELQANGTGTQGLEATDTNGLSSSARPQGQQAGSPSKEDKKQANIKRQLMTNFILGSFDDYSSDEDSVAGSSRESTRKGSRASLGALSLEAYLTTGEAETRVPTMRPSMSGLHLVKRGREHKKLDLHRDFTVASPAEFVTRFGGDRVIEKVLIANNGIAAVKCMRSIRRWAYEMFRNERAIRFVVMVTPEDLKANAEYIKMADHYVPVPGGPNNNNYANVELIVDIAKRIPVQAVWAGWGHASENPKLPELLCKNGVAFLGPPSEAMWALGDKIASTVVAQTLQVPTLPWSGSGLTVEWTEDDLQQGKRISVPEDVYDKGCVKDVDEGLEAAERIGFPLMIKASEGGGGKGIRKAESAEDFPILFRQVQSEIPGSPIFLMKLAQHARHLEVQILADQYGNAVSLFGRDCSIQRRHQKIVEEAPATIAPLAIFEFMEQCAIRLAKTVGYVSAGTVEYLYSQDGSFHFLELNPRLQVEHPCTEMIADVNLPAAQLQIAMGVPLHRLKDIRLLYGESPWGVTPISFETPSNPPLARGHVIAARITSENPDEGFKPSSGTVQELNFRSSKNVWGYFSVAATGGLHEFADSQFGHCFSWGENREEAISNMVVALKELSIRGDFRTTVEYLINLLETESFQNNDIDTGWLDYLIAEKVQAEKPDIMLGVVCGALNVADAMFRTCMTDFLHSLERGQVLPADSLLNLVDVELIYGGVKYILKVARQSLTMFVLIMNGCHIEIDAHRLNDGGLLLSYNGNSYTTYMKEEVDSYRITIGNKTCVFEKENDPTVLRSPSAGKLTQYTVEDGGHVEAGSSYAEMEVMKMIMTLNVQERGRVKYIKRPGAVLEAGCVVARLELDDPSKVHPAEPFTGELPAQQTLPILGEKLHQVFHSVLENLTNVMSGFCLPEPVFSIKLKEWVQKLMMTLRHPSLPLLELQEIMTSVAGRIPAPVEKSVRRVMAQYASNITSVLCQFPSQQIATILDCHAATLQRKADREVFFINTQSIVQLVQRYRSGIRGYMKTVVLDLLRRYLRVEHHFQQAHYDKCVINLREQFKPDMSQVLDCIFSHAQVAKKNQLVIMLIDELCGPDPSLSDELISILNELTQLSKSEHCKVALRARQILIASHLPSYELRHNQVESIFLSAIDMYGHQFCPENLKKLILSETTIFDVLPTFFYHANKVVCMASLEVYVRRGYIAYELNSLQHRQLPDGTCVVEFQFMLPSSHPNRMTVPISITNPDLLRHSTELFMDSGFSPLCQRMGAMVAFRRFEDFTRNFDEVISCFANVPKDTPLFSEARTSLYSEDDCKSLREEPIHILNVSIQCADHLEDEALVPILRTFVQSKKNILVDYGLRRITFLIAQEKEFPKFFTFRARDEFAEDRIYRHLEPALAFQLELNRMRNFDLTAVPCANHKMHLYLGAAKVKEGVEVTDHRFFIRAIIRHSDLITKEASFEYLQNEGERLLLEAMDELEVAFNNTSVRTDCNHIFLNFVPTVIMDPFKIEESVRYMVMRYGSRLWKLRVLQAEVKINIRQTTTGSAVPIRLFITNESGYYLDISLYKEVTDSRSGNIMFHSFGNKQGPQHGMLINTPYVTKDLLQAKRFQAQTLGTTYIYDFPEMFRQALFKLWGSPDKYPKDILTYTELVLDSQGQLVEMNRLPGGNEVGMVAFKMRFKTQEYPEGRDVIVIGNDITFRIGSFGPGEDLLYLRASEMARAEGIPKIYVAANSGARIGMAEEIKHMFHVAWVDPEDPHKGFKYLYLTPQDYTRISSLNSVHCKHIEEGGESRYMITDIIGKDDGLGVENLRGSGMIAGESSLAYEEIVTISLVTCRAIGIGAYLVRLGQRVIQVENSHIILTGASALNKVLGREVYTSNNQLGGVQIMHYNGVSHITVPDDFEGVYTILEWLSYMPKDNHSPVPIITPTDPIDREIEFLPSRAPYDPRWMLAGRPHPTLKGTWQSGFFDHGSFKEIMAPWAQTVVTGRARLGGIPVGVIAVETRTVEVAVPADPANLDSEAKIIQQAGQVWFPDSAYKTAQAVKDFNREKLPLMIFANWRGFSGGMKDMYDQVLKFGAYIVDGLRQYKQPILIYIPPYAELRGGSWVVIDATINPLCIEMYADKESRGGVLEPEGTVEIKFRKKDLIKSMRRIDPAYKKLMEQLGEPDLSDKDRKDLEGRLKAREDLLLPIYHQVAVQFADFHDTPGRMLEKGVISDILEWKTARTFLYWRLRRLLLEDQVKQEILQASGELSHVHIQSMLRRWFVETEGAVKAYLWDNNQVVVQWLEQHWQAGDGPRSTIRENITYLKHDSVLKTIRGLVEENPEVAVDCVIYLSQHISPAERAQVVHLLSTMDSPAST

As to `CCNC(=O)C(C)(C)n1c(=O)c2c(C)c(-n3nccn3)sc2n(C[C@H](O)c2cc(F)ccc2OC)c1=O` [Compound I-255], the IC90 is 2 µg/mL (≈ 3.77 µM) in the assay with Botrtyis cinerea (Bc) (setting [5]); 0.4 µg/mL (≈ 0.754 µM) in the assay with Rhizoctonia solani (Rs) (setting [6]); over 50 µg/mL in assay [1] (setting [7]); 2 µg/mL (≈ 3.77 µM) with Diplodia maydis (Dm) (setting [9]); 0.4 µg/mL (≈ 0.754 µM) in [2] (setting [11]); over 50 µg/mL in the assay with Septoria tritici (St) (setting [13]). The results for the IC90 in assay [3] (setting [14]) and in assay [4] (setting [15]) were 2 µg/mL (≈ 3.77 µM) and 0.08 µg/mL (≈ 0.151 µM), respectively. The IC50 lay in the range of 0.3 to 1 nM on fungal (fACC2) and 10 to 40 nM at human (hACC2). For the same compound, the MIC in the assay on C. parapsilosis (setting [8]), with C. krusei (setting [10]) and with C. albicans (setting [12]) was 2.01 to 4 µg/mL (≈ 3.79 to 7.54 µM) throughout.

`COc1ccccc1[C@@H](O)Cn1c(=O)n(C(C)(C)C(=O)NC(C)C)c(=O)c2c(C)c(-n3nccn3)sc21` [Compound I-256]: the IC90 was 0.4 µg/mL (≈ 0.76 µM) in the assay on Botrtyis cinerea (Bc) (read-out: Concentration at 90% Inhibition Bc, Botrtyis cinerea); 0.08 µg/mL (≈ 0.152 µM) in the assay with Rhizoctonia solani (Rs) (read-out: Concentration at 90% Inhibition Rs, Rhizoctonia solani, mycelial plugs, growth inhibition at 48 hours vs 2% DMSO control); 10 µg/mL (≈ 19 µM) in assay [1] (read-out: Concentration at 90% Inhibition Pc, Phytophthora capsici, growth inhibition at 48 hours vs 2% DMSO control); 2 µg/mL (≈ 3.8 µM) with Diplodia maydis (Dm) (read-out: Concentration at 90% Inhibition Dm, Diplodia maydis); 0.08 µg/mL (≈ 0.152 µM) in [2] (read-out: Concentration at 90% Inhibition Fv, Fusarium virguliforme, growth inhibition at 48 hours vs 2% DMSO control); over 50 µg/mL in the assay with Septoria tritici (St) (read-out: Concentration at 90% Inhibition St, Septoria tritici). Further, the IC90 in [3] (read-out: Concentration at 90% Inhibition Cg, Collectotrichum graminicola) came to 2 µg/mL (≈ 3.8 µM); in assay [4], 0.08 µg/mL (≈ 0.152 µM). The IC50 fell in the range of 1 to 5 nM at fungal (fACC2) and 5 to 10 nM at human (hACC2). Moreover, the minimum inhibitory concentration (MIC) in the assay with C. parapsilosis (read-out: MIC, C. parapsilosis ATCC 22019, Table 3b (additional results), 3 replicates, MIC recorded at 48 h) was in the range of 0.25 to 1 µg/mL (≈ 0.475 to 1.9 µM); in the assay on C. krusei (read-out: MIC, C. krusei ATCC 6258, Table 3b (additional results), 3 replicates, MIC recorded at 48 h) it was 0.25 to 1 µg/mL (≈ 0.475 to 1.9 µM); in the assay on C. albicans (read-out: MIC, C. albicans ATCC 90028, Table 3b (additional results), 3 replicates, MIC recorded at 48 h), 1.01 to 2 µg/mL (≈ 1.92 to 3.8 µM).

`CCNC(=O)C(C)(C)n1c(=O)c2c(C)c(-n3nccn3)sc2n(C[C@H](OC(C)=O)c2cc(F)ccc2OC)c1=O` [Compound I-257]: the IC90 (in the assay with Botrtyis cinerea (Bc) (setting [5]); in the assay with Rhizoctonia solani (Rs) (setting [6]); in assay [1] (setting [7]); in the assay on Diplodia maydis (Dm) (setting [9]); in assay [2] (setting [11]); in the assay with Septoria tritici (St) (setting [13])) was over 50 µg/mL each time. For the same compound, the IC90 was over 50 µg/mL in assay [3] (setting [14]) and 10 µg/mL (≈ 17.5 µM) in assay [4] (setting [15]). The IC50 at fungal (fACC2) is 5 to 10 nM; against human (hACC2), over 40 nM. The MIC was in the range of 2.01 to 4 µg/mL (≈ 3.51 to 6.99 µM) in the assay with C. parapsilosis (setting [8]), 1.01 to 2 µg/mL (≈ 1.76 to 3.49 µM) in the assay with C. krusei (setting [10]) and 2.01 to 4 µg/mL (≈ 3.51 to 6.99 µM) in the assay on C. albicans (setting [12]).

For the compound `COc1ccc(F)cc1[C@H](Cn1c(=O)n(C(C)(C)C(=O)NC(C)C)c(=O)c2c(C)c(-n3nccn3)sc21)OC(C)=O` [Compound I-258], the IC90 in the assay on Botrtyis cinerea (Bc) (setting [5]) was 10 µg/mL (≈ 17 µM); with Rhizoctonia solani (Rs) (setting [6]), over 50 µg/mL; in [1] (setting [7]), over 50 µg/mL; in the assay on Diplodia maydis (Dm) (setting [9]) it was over 50 µg/mL; in assay [2] (setting [11]), 10 µg/mL (≈ 17 µM); in the assay with Septoria tritici (St) (setting [13]) it was over 50 µg/mL. Besides, the IC90 in assay [3] (setting [14]) is over 50 µg/mL; in assay [4] (setting [15]), 10 µg/mL (≈ 17 µM). Also, the IC50 at fungal (fACC2) was 5 to 10 nM; at human (hACC2) it was over 40 nM. Further, the MIC lay within 1.01 to 2 µg/mL (≈ 1.72 to 3.41 µM) in the assay with C. parapsilosis (setting [8]), 0.25 to 1 µg/mL (≈ 0.426 to 1.7 µM) in the assay with C. krusei (setting [10]) and 0.25 to 1 µg/mL (≈ 0.426 to 1.7 µM) in the assay on C. albicans (setting [12]).

On to `CCNC(=O)C(C)(C)n1c(=O)c2c(C)c(-n3nccn3)sc2n(C[C@@H](OC(C)=O)c2cc(F)ccc2OC)c1=O` [Compound I-260], for which the IC90 in the assay with Botrtyis cinerea (Bc) (setting [5]) is 2 µg/mL (≈ 3.49 µM); with Rhizoctonia solani (Rs) (setting [6]), 2 µg/mL (≈ 3.49 µM); in assay [1] (setting [7]), over 50 µg/mL; in the assay with Diplodia maydis (Dm) (setting [9]), 10 µg/mL (≈ 17.5 µM); in assay [2] (setting [11]), 2 µg/mL (≈ 3.49 µM); in the assay with Septoria tritici (St) (setting [13]), over 50 µg/mL. For the same compound, the IC90 in assay [3] (setting [14]) came out at 10 µg/mL (≈ 17.5 µM); in assay [4] (setting [15]), 0.4 µg/mL (≈ 0.699 µM). The IC50 lay in the range of 0.3 to 1 nM on fungal (fACC2) and 10 to 40 nM at human (hACC2). The MIC in the assay with C. parapsilosis (setting [8]) lay within 2.01 to 4 µg/mL (≈ 3.51 to 6.99 µM); in the assay on C. krusei (setting [10]), 1.01 to 2 µg/mL (≈ 1.76 to 3.49 µM); in the assay on C. albicans (setting [12]), 2.01 to 4 µg/mL (≈ 3.51 to 6.99 µM).
